Results taken from US20050042308A1, “Pharmaceutical composition having cholagogic and litholytic effect and its preparation method” (priority 2001, published 2005).
Marks after values point to notes of the source that are not given here.

Experiments:
[1] = tested on: gallbladder muscle stripe in vitro; experiment: Gallbladder smooth muscle contraction caused by acetylcholine; parameters: species or system guinea pig
Protocol: Krebs liquid culture plate, anatomize longitudinally to get 2 pieces of muscle stripe of gallbladder with 10 mm length and […] width. Place the muscle stripe into 37° C. constant temperature Mcrruary bath with Kmbs solution (20 ml), the lower end is fixed on the hook at the bottom of the bath, the upper end is connected to the energy transducer, adjust the oxygen flow gas bubble to tiny and uniform flow, the energy transducer is connected to physiological recorder with prepositive amplifier. Every time after adding test solution observes for more than 3 minutes. When reaching the biggest effect, timely rinse the bath with flushing solution three times with 15 minutes break. After the contraction curve becomes balanced, to make another experiment. […] Krebs solution should be prepared with double-distilled water). After adding acetylcholine, record the contraction curve of gallbladder muscle. From the contraction curve, we can see the amplitude of contraction curve rise. After contraction curve reaches peak-balance, add different concentration LDRS solution. After adding drug solution, the amplitude of contraction curve of gallbladder muscle stripe descends. Record the altitude of amplitude of every phase. The statistic method is below: before drug administration, from the upper and lower limit point of the amplitude contraction curve of gallbladder muscle stripe to respectively line a straight line parallel to the transverse coordinate axis, measure the altitude between the two parallel line as the normal amplitude (The lower line before drug administration is used as basal line). After contraction curve is stable, adding different concentration Ach solution, we can see the amplitude of contraction curve of gallbladder muscle stripe rise, through the peak of amplitude to line a straight line parallel to basal line and measure the altitude between the two parallel line as amplitude of Ach. After curve is stable, add different concentration LDRS stock solution and through the lowest point of amplitude to line parallel to basal line, measure the altitude between the basal line and the lowest line.

[2] = tested on: fever of the rat; experiment: Fever of the rat caused by 2, 4-dinitrophenol; assay type: in vivo; settings: Aminopyrine 80(mg), Eulektrol 0.15 ml/kg
Protocol: Get […] healthy male rats with 1 80˜220 g body weight, randomly separate them into 6 groups according to the body weight with 8 rats in each group. The rats in the 1st group are forced to take 0.5% CMC 10 ml/kg. The rats in the 2nd group are forced to take aminopyrine […]. The rats in 3rd group are forced to take Eulektrol 0.15 ml /kg. The rats in the 4th, 5th, 6th are respectively forced to take LDRS 0.077 ml, 0.154 ml, […]. 15 minutes later after drug administration SC 25 mg/ml 2,4-dinitrophenol in the middle of shoulder and back, then measure the anal temperature in 0 hour before drug administration, 0.25 hours, 0.5 hours, 1 hours, 2 hours, 4 hours after drug administration.

[3] = tested on: cholelithiasis patients; settings: cited from earlier work
[4] = tested on: bilirubin in bile; experiment: The measure of bilirubin of bile; assay type: in vivo; settings: cholanic acid 0.1(g), Eulektrol 0.15(g), Dehydrogenized cholanic acid 0.1(g)
[5] = tested on: bile secretion of the rat; experiment: Cholagogue experiment in rat (bile efflux coefficient); assay type: in vivo; settings: Eulektrol 0.150 ml/kg; for bile efflux coefficient before 1 hour: before drug administration, Cholanic acid 100 mg (pure substance), Dehydrogenized Cholanic acid 100 mg (pure substance) groups; for (%) increase of bile efflux coefficient compared with control group, after 1 hour / (%) increase of bile efflux coefficient compared with control group, after 2 hours / (%) increase of bile efflux coefficient compared with control group, after 3 hours / (%) increase of bile efflux coefficient compared with control group, after 4 hours / bile efflux coefficient after 1 hour / bile efflux coefficient after 2 hours / bile efflux coefficient after 3 hours / bile efflux coefficient after 4 hours: into duodenum, Cholanic acid 100 mg, Dehydrogenized Cholanic acid 100 mg (pure substance)
Protocol: After grouping, the experimental rats are fasting for 16 hours before experiment; anesthetize these rats through ip ethyl carbamate (also named Urethane). After anesthesia, enlace the four limbs; incise the abdomen to find the pylorus of the stomach. Along the pylorus, find common bile duct. Use little forceps to deliminate the surface envelope and reveal the common bile duct, ligate the lower extremity, carefully shear a little ventage, insert plastic duct with external diameter 1 mm into the common bile duct proximal to the liver to drain the bile. After bile drainage volume is stable, record the bile collection volume every 0.5 hour, for two times.

[6] = tested on: auricular swollen of mouse caused by dimethylbenzene; experiment: Auricular inflammation of mouse caused by dimethylbenzene; assay type: in vivo; settings: Eulektrol 0.15 ml/kg; Indothemacin 30 (mg)
[7] = tested on: ankle swollen of rat caused by carragheen; experiment: Ankle swollen of the rat caused by carragheen; assay type: in vivo; settings: Eulektrol 0.15 ml/kg, Prednisone acetate 30(mg)
[8] = tested on: granuloma of rat; experiment: Granuloma of rat caused by agar; assay type: in vivo; settings: Prednisone 30 (mg)
Excerpt: Thereinto, the inhibition effect of moderates high dose group is compared with control group, P<0.05, P<0.01 respectively, showing significant inhibition effect.

[9] = series with 8 muscle stripes, Ach 10^−4 ml alone, or LDRS (printed 10^−2 ml) added after Ach
[10] = series with 13 muscle stripes, Ach 10^−4 ml alone, or LDRS 10^−2 ml added after Ach

Compound | D-bil in bile ([4]; 1 h) [mmol/L] | F-bil in bile ([4]; 1 h) [mmol/L] | T-BIL in bile ([4]; 1 h) [mmol/L] | D-bil in bile ([4]; 2 h) [mmol/L] | F-bil in bile ([4]; 2 h) [mmol/L] | T-BIL in bile ([4]; 2 h) [mmol/L] | D-bil in bile ([4]; 3 h) [mmol/L] | F-bil in bile ([4]; 3 h) [mmol/L] | T-BIL in bile ([4]; 3 h) [mmol/L] | D-bil in bile ([4]; 4 h) [mmol/L] | F-bil in bile ([4]; 4 h) [mmol/L] | T-BIL in bile ([4]; 4 h) [mmol/L] | bile efflux coefficient before 1 hour [5] | (%) increase of bile efflux coefficient compared with control group, after 1 hour [5] [%] | (%) increase of bile efflux coefficient compared with control group, after 2 hours [5] [%] | (%) increase of bile efflux coefficient compared with control group, after 3 hours [5] [%] | (%) increase of bile efflux coefficient compared with control group, after 4 hours [5] [%] | bile efflux coefficient after 1 hour [5] | bile efflux coefficient after 2 hours [5] | bile efflux coefficient after 3 hours [5] | also measured
CC(=O)OCC[N+](C)(C)C [Ach, acetylcholine] | – | – | – | – | – | – | – | – | – | – | – | – | – | – | – | – | – | – | – | – | gallbladder contraction amplitude [1, 9]: 32.73 ± 6.90 mm; variation rate of amplitude (normal value = 100.0) [1, 9]: 654.6%; gallbladder contraction amplitude [1, 10]: 35.2 ± 6.84 mm; variation rate of amplitude (normal value = 100.0) [1, 10]: 541.5%
Cc1c(N(C)C)c(=O)n(-c2ccccc2)n1C [Aminopyrine, aminopyrine] | – | – | – | – | – | – | – | – | – | – | – | – | – | – | – | – | – | – | – | – | the body temperature variation after drug administration ([2]; 0.25 h): −0.21 ± 0.52 °C; the body temperature variation after drug administration ([2]; 0.5 h): −0.05 ± 0.81 °C; the body temperature variation after drug administration ([2]; 1 h): 0.03 ± 0.79 °C; the body temperature variation after drug administration ([2]; 2 h): 0.49 ± 0.47 °C; the body temperature variation after drug administration ([2]; 4 h): 0.30 ± 0.67 °C
C[C@H](CCC(=O)O)[C@H]1CC[C@H]2[C@@H]3CCC4CCCC[C@]4(C)[C@H]3CC[C@]12C (some centres unmarked) [Cholanic acid, cholanic acid] | 67.3 ± 25.4 | 26.7 ± 20.1 | 94.1 ± 37.9 | 60.8 ± 31.9 | 16.9 ± 12.8 | 77.7 ± 38.9 | 55.3 ± 18.2 | 27.2 ± 13.9 | 82.5 ± 29.0 | 53.0 ± 31.6 | 28.3 ± 10.6 | 81.3 ± 29.8 | 0.116 ± 0.04 ml(bile)/100 g · bw | 6.4 | 26.8 | 123.6 | 45.1 | 0.166 ± 0.04 ml(bile)/100 g · bw | 0.189 ± 0.05 ml(bile)/100 g · bw | 0.246 ± 0.04 ml(bile)/100 g · bw | efficacy of the therapeutics (reducing the gallstone size, dissolving the gallstone or decreasing the gallstone) ([3]; clinical case report): about 50%; patients with SGOT increase ([3]; treatment of the cholelithiasis): 20%; bile efflux coefficient after 4 hours [5]: 0.164 ± 0.04 ml(bile)/100 g · bw
C[C@H](CCC(=O)O)[C@H]1CC[C@H]2[C@@H]3C(=O)C[C@@H]4CC(=O)CC[C@]4(C)[C@H]3CC(=O)[C@]12C [Dehydrogenized Cholanic acid, dehydrogenized cholanic acid] | 57.8 ± 12.8 | 15.4 ± 4.9 | 73.1 ± 14.1 | 43.4 ± 15.5 | 10.9 ± 11.2 | 54.3 ± 23.9 | 39.9 ± 10.2 | 8.16 ± 3.1 | 48.1 ± 14.8 | 45.7 ± 16.4 | 13.6 ± 5.69 | 59.3 ± 19.7 | 0.116 ± 0.04 ml(bile)/100 g · bw | 5.8 | 57.0 | 102.7 | 85.8 | 0.165 ± 0.08 ml(bile)/100 g · bw | 0.234 ± 0.07 ml(bile)/100 g · bw | 0.223 ± 0.05 ml(bile)/100 g · bw | bile efflux coefficient after 4 hours [5]: 0.210 ± 0.07 ml(bile)/100 g · bw
COc1ccc2c(c1)c(CC(=O)O)c(C)n2C(=O)c1ccc(Cl)cc1 [Indothemacin, indomethacin] | – | – | – | – | – | – | – | – | – | – | – | – | – | – | – | – | – | – | – | – | inhibition rate of auricular swelling [6]: 74.0%; the auricular weight difference between left and right [6]: 3.98 ± 2.5 mg/100 g
CC(=O)OCC(=O)[C@@]1(O)CC[C@H]2[C@@H]3CCC4=CC(=O)C=C[C@]4(C)[C@H]3C(=O)C[C@@]21C [Prednisone acetate] | – | – | – | – | – | – | – | – | – | – | – | – | – | – | – | – | – | – | – | – | size of ankle ([7]; 2 h after drug): 2.34 ± 0.17 cm; size of ankle ([7]; 4 h after drug): 2.10 ± 0.15 cm; size of ankle ([7]; 8 h after drug): 1.90 ± 0.19 cm; size of ankle ([7]; 16 h after drug): 2.10 ± 0.211 cm; size of ankle ([7]; 20 h after drug): 2.00 ± 0.009 cm; average granuloma coefficient [8]: 0.20 ± 0.08; inhibition rate of granuloma coefficient [8]: 69.2** %
